The test system of one data set is GLC-4. Description: In vitro cytotoxicity, colorimetric MTT assay on GLC-4. The data set is classed as cell-based. Conditions: GLC4, human carcinoma cell line, concentrations up to 100 mikroM, incubation until 72 h, read-out: IC50 (_M)GLC-4. Here is the method:
(§1) The in vitro cytotoxicity of the compounds of the present invention was evaluated by colorimetric assays with tetrazol salts (MTT) on Jurkat clon E6-1 and on GLC-4, human leukemia and carcinoma cell lines, respectively. This assay is based on the capacity of live cells to incorporate and reduce the MTT, […], only active in live cells. The intensity of observed colour is directly correlated with the quantity of live cells in the sample as it is described by Mosmann et al., J. Immunol. Methods 1983, vol. 65, p. 55. In all cases the concentrations used were up to 100 mikroM and times of incubation until 72 h.
(Tetrazolium assays rely on reduction of a dye to a coloured formazan, in cell work by metabolically active cells.)

Another data set has as its system Jurkat clon E6-1. The experiment in a line: In vitro cytotoxicity, colorimetric MTT assay on Jurkat clon E6-1. The data set is classed as cell-based. Conditions: human leukemia cell line, concentrations up to 100 mikroM, incubation until 72 h, read-out: IC50 (_M) Jurkat clon E6-1. The method, then:
as §1

The source of these data is patent publication US7728000B2, “Substituted quinolines for the treatment of cancer” (Crystax Pharmaceuticals, priority 2003, dated 2010).

Each structure is given as a SMILES string.

The compound `CC(CNC(=O)c1c2ccccc2nc2c1[nH]c1ccccc12)N(C)C` (stereo not shown) [Iv, 10H-Indolo[3,2-b]quinoline-11-carboxylic acid (2-dimethylamino-propyl)amide] displayed a melting point of 188 to 189 °C. In addition, the IC50 in the data set on GLC-4 stood at 16700 nM.

Compound `CN(CCCNC(=O)c1c2ccccc2nc2ccccc12)CCCNC(=O)c1c2ccccc2nc2c1[nH]c1ccccc12` [Ia, N-[3-[[3-[(9-acridinecarbonyl)amino]propyl]methylamino]propyl]-10H-indolo[3,2-b]quinoline-11-carboxamide] yielded a melting point of 108 to 110 °C. The IC50 in the data set on Jurkat clon E6-1 was 1420 nM. In addition, in the data set on GLC-4, the IC50 is 1630 nM.

For `CC(CN(C)C)Nc1c2nc3ccccc3c-2n(C)c2ccccc12` (stereo not shown) [Iw, N,N-dimethyl-N′-(5-methyl-5H-indolo[3,2-b]quinolin-11-yl)-propane-1,2-diamine], the half-maximal inhibitory concentration (IC50) with GLC-4 amounted to 1080 nM.

As for `CN(C)CCNc1c2nc3ccccc3c-2n(C)c2ccccc12` [Ip, N,N-dimethyl-N′-(5-methyl-5H-indolo[3,2-b]quinolin-11-yl)-ethane-1,2-diamine], the IC50 in the data set with Jurkat clon E6-1 amounted to 260 nM; in the data set with GLC-4, 670 nM.

Take `CN(C)CCNC(=O)c1c2ccccc2nc2c1[nH]c1ccccc12` [Iu, 10H-indolo[3,2-b]quinoline-11-carboxylic acid (2-dimethylamino-ethyl)amide]: the IC50 in the data set on Jurkat clon E6-1 is 18700 nM; in the data set on GLC-4, 15700 nM.

Usually melting point stands for the temperature of the solid-liquid transition. Broadly, the IC50 is the concentration that gives 50% inhibition.
